{"source": "ChEMBL document CHEMBL1201862", "about": "“PubChem BioAssay data set” (2004)", "key": {"cells [1]": {"assay": "cells", "format": "functional, cell-based"}, "cells [2]": {"assay": "cells", "format": "functional, cell-based", "remark": "listed apart in the source"}, "[3]": {"molecular_target": "FAD-linked sulfhydryl oxidase ALR (Homo sapiens, UniProt P55789)", "sequence (P55789 whole entry)": "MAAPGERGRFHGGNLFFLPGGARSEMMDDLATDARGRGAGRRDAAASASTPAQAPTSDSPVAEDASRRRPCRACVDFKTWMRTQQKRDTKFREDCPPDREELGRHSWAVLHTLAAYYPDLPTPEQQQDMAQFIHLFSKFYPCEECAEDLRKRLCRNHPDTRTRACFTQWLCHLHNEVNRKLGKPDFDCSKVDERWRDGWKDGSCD", "assay": "ALR-catalysed DTT oxidation blockers – biochemical, H2O2 detection, luminescence, cherry-pick, dose response (AID 493248)"}, "[4]": {"assay": "Luminescence Cell-Based Dose Retest to Confirm Inhibitors of Cancer Stem Cells. [Related pubchem assays (depositor defined):AID2717, AID2721]", "format": "functional", "conditions": "Homo sapiens"}, "[5]": {"assay": "viability of HCT116 lacking mutant beta-catenin – cell-based, human colon tumor, dose response (AID 1045);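 note: HCT116 colon tumor cells with beta catenin knocked out; cells exposed to compound for 60 hours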", "format": "functional"}, "[6]": {"assay": "viability of PTEN-deleted HCT116 cells – cell-based, HCT116 PTEN knockout, dose response (AID 1047);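 note: HCT116 colon tumor cells with PTEN knocked out; cells exposed to compound for 60 hours before readout; potency for loss of cell viability measured by luminescence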", "format": "functional"}, "Fatty acid synthase [7]": {"molecular_target": "T1, Fatty acid synthase (Homo sapiens, UniProt P49327)", "T1 sequence (P49327 whole entry)": "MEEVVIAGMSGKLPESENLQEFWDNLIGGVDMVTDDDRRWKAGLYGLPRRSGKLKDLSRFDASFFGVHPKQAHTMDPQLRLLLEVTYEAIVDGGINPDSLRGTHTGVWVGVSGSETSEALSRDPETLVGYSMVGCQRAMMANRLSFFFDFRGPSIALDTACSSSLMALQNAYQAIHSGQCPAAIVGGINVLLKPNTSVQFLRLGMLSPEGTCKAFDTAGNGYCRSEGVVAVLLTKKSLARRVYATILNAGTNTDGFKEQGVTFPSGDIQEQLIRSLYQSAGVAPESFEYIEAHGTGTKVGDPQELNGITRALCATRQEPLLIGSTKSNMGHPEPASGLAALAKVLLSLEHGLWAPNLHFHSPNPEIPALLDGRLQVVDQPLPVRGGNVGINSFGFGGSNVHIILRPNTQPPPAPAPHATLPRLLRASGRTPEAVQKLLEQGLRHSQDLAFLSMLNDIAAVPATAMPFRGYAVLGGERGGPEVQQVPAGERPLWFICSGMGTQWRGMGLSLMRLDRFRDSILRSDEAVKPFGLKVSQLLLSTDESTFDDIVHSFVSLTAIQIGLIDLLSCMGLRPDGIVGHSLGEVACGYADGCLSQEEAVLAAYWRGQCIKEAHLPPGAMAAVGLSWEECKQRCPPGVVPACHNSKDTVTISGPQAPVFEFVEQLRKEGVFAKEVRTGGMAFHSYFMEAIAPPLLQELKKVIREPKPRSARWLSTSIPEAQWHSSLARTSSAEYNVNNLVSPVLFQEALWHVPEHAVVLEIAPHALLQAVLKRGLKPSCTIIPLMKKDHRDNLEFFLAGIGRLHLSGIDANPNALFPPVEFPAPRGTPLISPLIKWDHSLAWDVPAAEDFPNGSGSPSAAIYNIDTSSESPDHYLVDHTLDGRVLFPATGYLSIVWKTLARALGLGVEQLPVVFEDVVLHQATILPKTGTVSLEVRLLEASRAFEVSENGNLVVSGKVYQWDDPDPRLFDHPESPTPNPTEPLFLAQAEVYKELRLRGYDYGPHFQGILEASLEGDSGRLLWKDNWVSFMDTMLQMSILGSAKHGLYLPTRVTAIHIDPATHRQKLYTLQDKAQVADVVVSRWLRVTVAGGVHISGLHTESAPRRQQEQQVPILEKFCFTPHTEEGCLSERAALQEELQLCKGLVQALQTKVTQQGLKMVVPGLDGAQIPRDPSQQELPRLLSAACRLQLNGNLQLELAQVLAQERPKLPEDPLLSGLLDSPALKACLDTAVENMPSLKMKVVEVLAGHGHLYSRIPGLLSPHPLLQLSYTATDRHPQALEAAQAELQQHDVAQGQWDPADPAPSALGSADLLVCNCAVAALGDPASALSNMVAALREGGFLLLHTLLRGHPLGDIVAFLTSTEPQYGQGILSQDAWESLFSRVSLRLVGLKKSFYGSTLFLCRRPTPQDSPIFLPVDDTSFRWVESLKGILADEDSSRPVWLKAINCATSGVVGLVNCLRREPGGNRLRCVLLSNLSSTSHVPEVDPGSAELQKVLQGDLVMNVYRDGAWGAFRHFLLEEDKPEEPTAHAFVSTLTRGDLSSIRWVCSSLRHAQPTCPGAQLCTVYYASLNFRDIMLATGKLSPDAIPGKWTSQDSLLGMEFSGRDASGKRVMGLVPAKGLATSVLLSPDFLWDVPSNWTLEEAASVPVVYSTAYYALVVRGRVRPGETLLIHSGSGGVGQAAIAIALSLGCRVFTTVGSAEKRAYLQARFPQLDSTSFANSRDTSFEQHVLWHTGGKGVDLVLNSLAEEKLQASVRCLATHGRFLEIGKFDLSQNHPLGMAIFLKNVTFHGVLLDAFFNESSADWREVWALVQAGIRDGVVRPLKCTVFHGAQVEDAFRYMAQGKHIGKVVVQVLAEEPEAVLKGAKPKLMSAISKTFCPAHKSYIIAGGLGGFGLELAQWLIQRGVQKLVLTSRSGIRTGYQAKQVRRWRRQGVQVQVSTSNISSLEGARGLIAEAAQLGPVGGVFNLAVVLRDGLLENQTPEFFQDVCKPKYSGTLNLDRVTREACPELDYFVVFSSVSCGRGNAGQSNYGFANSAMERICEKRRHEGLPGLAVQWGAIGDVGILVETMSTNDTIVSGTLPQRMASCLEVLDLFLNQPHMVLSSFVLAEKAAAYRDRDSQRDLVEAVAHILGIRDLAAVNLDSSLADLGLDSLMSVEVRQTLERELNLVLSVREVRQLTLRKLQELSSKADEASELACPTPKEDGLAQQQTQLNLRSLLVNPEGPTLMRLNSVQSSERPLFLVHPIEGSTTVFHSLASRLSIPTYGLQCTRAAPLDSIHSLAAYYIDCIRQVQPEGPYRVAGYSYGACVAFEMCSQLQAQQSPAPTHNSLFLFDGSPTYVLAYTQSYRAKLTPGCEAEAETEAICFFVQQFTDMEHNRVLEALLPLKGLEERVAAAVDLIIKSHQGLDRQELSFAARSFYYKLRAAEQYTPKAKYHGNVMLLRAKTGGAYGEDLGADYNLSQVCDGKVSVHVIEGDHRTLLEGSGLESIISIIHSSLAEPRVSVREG", "assay": "inhibition of human FAS-TE enzyme activity – biochemical, kinetic fluorescence intensity, dose response (AID 624326);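 note: rate of fluorescence rise from hydrolysis of a fluorogenic O-methyl fluorescein ester substrate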", "format": "functional"}, "Fatty acid synthase [8]": {"molecular_target": "T1, Fatty acid synthase", "assay": "inhibition of human FAS-TE enzyme activity – biochemical, endpoint fluorescence intensity, uHTS hits, dose response (AID 624327);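 note: fluorescence from hydrolysis of an O-methyl fluorescein acyl ester substrate by the enzyme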", "format": "functional"}, "cells [9]": {"assay": "cells", "format": "functional"}, "Vero": {"system": "Vero", "assay": "cells", "format": "functional", "conditions": "Chlorocebus sabaeus"}, "Paired box protein Pax-8": {"molecular_target": "Paired box protein Pax-8 (Homo sapiens, UniProt Q06710)", "sequence (Q06710 whole entry)": "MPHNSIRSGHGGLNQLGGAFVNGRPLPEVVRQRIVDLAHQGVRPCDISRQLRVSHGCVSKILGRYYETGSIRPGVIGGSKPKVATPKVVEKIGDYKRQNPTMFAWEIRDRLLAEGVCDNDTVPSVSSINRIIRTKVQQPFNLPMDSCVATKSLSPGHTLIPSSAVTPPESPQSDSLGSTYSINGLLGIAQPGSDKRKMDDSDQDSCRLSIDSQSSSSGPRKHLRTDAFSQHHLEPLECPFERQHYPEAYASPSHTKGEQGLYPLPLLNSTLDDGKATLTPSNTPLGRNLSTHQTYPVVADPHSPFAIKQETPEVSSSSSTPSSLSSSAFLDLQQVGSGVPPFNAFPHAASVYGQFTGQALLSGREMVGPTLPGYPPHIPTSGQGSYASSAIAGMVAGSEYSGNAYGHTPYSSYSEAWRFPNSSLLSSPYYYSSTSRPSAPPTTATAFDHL", "assay": "PAX8 transcriptional activity inhibition in RMG-I – RMG-I cells, luciferase, cherry-pick, dose response (AID 687027);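 note: luciferase reporter driven by Pax8 target thyroperoxidase promoter measured by SteadyGlo luminescence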", "format": "functional, cell-based"}, "[10]": {"assay": "A549 cell cytotoxicity, dose response, cytotoxicity control, plate reader, cherry-pick, antagonist series (AID 743412)", "format": "functional, cell-based"}, "[11]": {"assay": "toxicity toward HepG2 liver cells – cell-based, plate reader, cherry-pick, antagonist series, cytotoxicity control, dose response (AID 743416)", "format": "functional"}, "[12]": {"assay": "blockade of melanocortin 4 receptor signaling – cell-based, plate reader, cherry pick, counter-screen for LGR2 antagonist project, dose response (AID 743444);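 note: transfected HEK 293 cells stimulated with alpha-MSH peptide; potency of inhibitors of the alpha-MSH evoked signal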", "format": "functional"}}, "note": "Active and inactive are the calls of the source."}
{"smiles": "COc1cccc(NC(=S)N(CCCN2CCOCC2)Cc2cn(C)c3ccccc23)c1", "values": [{"measurement": "EC50", "setting": "cells [1]", "result": "> 350 µM (not active)"}, {"measurement": "EC50", "setting": "cells [2]", "result": "> 350 µM (not active)"}]}
{"smiles": "Cc1ccc(-c2nc(Nc3cccc(C)c3)sc2CC(=O)O)cc1", "values": [{"measurement": "AC50", "setting": "[3]", "result": "9.95 µM (active)"}]}
{"smiles": "Cn1c(CNc2ccc(Br)cc2)nc2ccccc21", "values": [{"measurement": "AC50", "setting": "[3]", "result": "14.6 µM (active)"}]}
{"smiles": "Cc1nnc2sc(SCc3cccc(Cl)c3)nn2c1=O", "values": [{"measurement": "AC50", "setting": "[4]", "result": "34.2 µM (active)"}, {"measurement": "AC50", "setting": "[3]", "result": "0.175 µM (active)"}]}
{"smiles": "O=C(Nc1nc2ccc([N+](=O)[O-])cc2s1)c1c(F)cccc1F", "values": [{"measurement": "EC50", "setting": "cells [1]", "result": "31.2 µM (active)"}, {"measurement": "EC50", "setting": "cells [2]", "result": "> 350 µM (not active)"}]}
{"smiles": "CC1(C)CC(=O)CC(C2(O)C(=O)N(Cc3ccccc3)c3ccccc32)O1", "note": "(stereo unspecified)", "values": [{"measurement": "EC50", "setting": "[5]", "result": "17.4 µM (active)"}, {"measurement": "EC50", "setting": "[6]", "result": "17.7 µM (active)"}]}
{"smiles": "Cc1cccc(C)c1NC(=O)NCCCN1CCN(c2ccccc2)CC1", "values": [{"measurement": "AC50", "setting": "[3]", "result": "89.4 µM (active)"}]}
{"smiles": "O=[N+]([O-])c1cc(-c2csc(NCCc3nc4cc(Cl)c(Cl)cc4n3CCCO)n2)ccc1Cl", "values": [{"measurement": "IC50", "setting": "Fatty acid synthase [7]", "result": "2.55 µM (active)"}, {"measurement": "IC50", "setting": "Fatty acid synthase [8]", "result": "2.49 µM (active)"}]}
{"smiles": "CCc1nonc1NC(=O)COc1ccc(Cl)c(C)c1", "values": [{"measurement": "IC50", "setting": "cells [9]", "result": "17 µM (active)"}]}
{"smiles": "O=C(CCc1ccccc1)N1CCN(c2ccc(F)cc2)CC1", "values": [{"measurement": "AC50", "setting": "[3]", "result": "13.8 µM (active)"}]}
{"smiles": "C[C@H](CO)N1C[C@H](C)[C@@H](CN(C)C(=O)Nc2ccccc2)Oc2c(NC(=O)Nc3ccc(C(F)(F)F)cc3)cccc2C1=O", "values": [{"measurement": "IC50", "setting": "Fatty acid synthase [7]", "result": "2.08 µM (active)"}, {"measurement": "IC50", "setting": "Fatty acid synthase [8]", "result": "2.24 µM (active)"}]}
{"smiles": "O=[N+]([O-])c1cc(-c2csc(NCCc3nc4cc(C(F)(F)F)ccc4n3CCCO)n2)ccc1Cl", "values": [{"measurement": "IC50", "setting": "Fatty acid synthase [7]", "result": "3.93 µM (active)"}, {"measurement": "IC50", "setting": "Fatty acid synthase [8]", "result": "5.17 µM (active)"}]}
{"smiles": "S=C(NCCc1ccccc1)N1Cc2cc(Br)ccc2-n2nncc2C1", "values": [{"measurement": "IC50", "setting": "Fatty acid synthase [7]", "result": "7.04 µM (active)"}, {"measurement": "IC50", "setting": "Fatty acid synthase [8]", "result": "12.1 µM (active)"}]}
{"smiles": "CC(=O)Nc1ccc(S(=O)(=O)N2CN(c3ccc(C)cc3)c3nc4ccccc4nc32)cc1", "values": [{"measurement": "CC50", "setting": "Vero", "result": "> 25 µM (active)"}]}
{"smiles": "CCOC(CNCc1cc(C)c2[nH]c3ccccc3c2c1C)OCC", "values": [{"measurement": "CC50", "setting": "Vero", "result": "22.6 µM (active)"}]}
{"smiles": "CN(Cc1cnn(-c2ccccc2)c1)C(=O)c1ccc(S(=O)(=O)NCc2ccco2)cc1", "values": [{"measurement": "CC50", "setting": "Vero", "result": "14.4 µM (active)"}]}
{"smiles": "C[C@@H]1CN([C@H](C)CO)C(=O)c2cc(NC(=O)Nc3ccc(C(F)(F)F)cc3)ccc2O[C@@H](C)CCCCO[C@H]1CN(C)Cc1ccc(Cl)c(Cl)c1", "values": [{"measurement": "AC50", "setting": "Paired box protein Pax-8", "result": "6.74 µM (active)"}]}
{"smiles": "OC[C@H]1[C@@H](c2ccc(-c3ccc(F)cc3)cc2)[C@@H]2CN(Cc3ccccn3)CCCCN12", "values": [{"measurement": "AC50", "setting": "[10]", "result": "22 µM (active)"}, {"measurement": "AC50", "setting": "[11]", "result": "19.1 µM (active)"}, {"measurement": "AC50", "setting": "[12]", "result": "37.5 µM (active)"}]}
{"smiles": "COc1cccc(/C=N/NC(=O)c2ccc([N+](=O)[O-])cc2Cl)c1O", "values": [{"measurement": "EC50", "setting": "cells [1]", "result": "172 µM (active)"}, {"measurement": "EC50", "setting": "cells [2]", "result": "19.1 µM (active)"}]}
{"smiles": "CCOC(=O)COc1ccc2c(=O)cc(-c3ccccc3)oc2c1", "note": "[EFLOXATE]", "values": [{"measurement": "IC50", "setting": "cells [9]", "result": "< 0.1 µM (active)"}]}
